Source: patent publication US10703764B2, “Benzopiperazine compositions as BET bromodomain inhibitors” (FORMA Therapeutics, Inc., priority 2013, dated 2020)

Tests used:
BRD4 BD1 = target: T1, BRD4 BD1 (Homo sapiens, UniProt O60885); assay: AlphaScreen binding assay, BRD4 Bromodomain 1
T1 construct: made in house
How it was run: (§1)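 Compound dilution series were mixed with His-tagged BRD4 bromodomain and biotinylated tetra-acetylated H4 (1-21) peptide at pH 7.3 (BD1 and peptide at 50 nM, BD2 and peptide at 100 nM). Donor and acceptor beads were then added, and plates were equilibrated at least 1 h before reading. IC50 values were fitted with a four-parameter logistic model.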

BRD4 BD2 = target: T2, BRD4 BD2 (Homo sapiens, UniProt O60885); assay: AlphaScreen binding assay, BRD4 Bromodomain 2
T2 construct: made in house
How it was run: as §1

MV4-11 cells = assay: Oncology cell growth assay (3-day proliferation, CellTiter-Glo); format: cell-based; settings: Homo sapiens, MV4-11, 72 h, AML cell line MV4-11, 72 hours, compounds grouped by IC50 range, read-out: MV4-11 IC50 (inhibition of proliferation, gIC50)
How it was run: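 MV4-11 AML cells (RPMI 1640, 10% FBS) plated at 3000 cells/well and exposed 72 h to compound at final 10 to 0.0045 μM (3-fold series). Viability read by CellTiter-Glo luminescence; gIC50 from four-parameter logistic fit between DMSO control and no-cell background.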

IC50 (BRD4 BD1)	IC50 (BRD4 BD2)	IC50 (MV4-11 cells)	Structure (SMILES)
100 to 1000 nM	50 to 500 nM	100 to 500 nM	CC(=O)N1c2ccc(-c3cnn(C4CC4)c3)cc2N(C(=O)Oc2cccc(C#N)c2)C[C@@H]1C [Example I-501]
100 to 1000 nM	50 to 500 nM	100 to 500 nM	CC(=O)N1c2ccc(-c3cnn(C4CC4)c3)cc2N(C(=O)Oc2cccc(F)c2)C[C@@H]1C [Example I-502]
100 to 1000 nM	50 to 500 nM	100 to 500 nM	CC(=O)N1c2ccc(-c3cnn(C4CC4)c3)cc2N(C(=O)Oc2cc(F)ccc2F)C[C@@H]1C [Example I-503]
100 to 1000 nM	50 to 500 nM	100 to 500 nM	CC(=O)N1c2ccc(-c3cnn(C4CC4)c3)cc2N(C(=O)Oc2ccc(C)cc2Cl)C[C@@H]1C [Example I-504]
100 to 1000 nM	50 to 500 nM	< 100 nM	COc1cc(C)ccc1OC(=O)N1C[C@H](C)N(C(C)=O)c2ccc(-c3cnn(C4CC4)c3)cc21 [Example I-506]
100 to 1000 nM	50 to 500 nM	100 to 500 nM	COc1ccc(C)cc1OC(=O)N1C[C@H](C)N(C(C)=O)c2ccc(-c3cnn(C4CC4)c3)cc21 [Example I-508]
100 to 1000 nM	50 to 500 nM	100 to 500 nM	CC(=O)N1c2ccc(-c3cnn(C4CC4)c3)cc2N(C(=O)Oc2ccccc2C)C[C@@H]1C [Example I-509]
< 100 nM	< 50 nM	100 to 500 nM	CC(=O)N1c2ccc(-c3cnn(C4CC4)c3)cc2N(C(=O)Oc2cccnc2)C[C@@H]1C [Example I-510]
< 100 nM	< 50 nM	100 to 500 nM	CC(=O)N1c2ccc(-c3cnn(C4CC4)c3)cc2N(C(=O)Oc2ccc(C)nc2)C[C@@H]1C [Example I-511]
< 100 nM	< 50 nM	< 100 nM	CC(=O)N1c2ccc(-c3cnn(C4CC4)c3)cc2N(C(=O)Oc2ccc3ncccc3c2)C[C@@H]1C [Example I-512]
100 to 1000 nM	50 to 500 nM	< 100 nM	CC(=O)N1c2ccc(-c3cnn(C4CC4)c3)cc2N(C(=O)Oc2ccc3nc(C)ccc3c2)C[C@@H]1C [Example I-513]
100 to 1000 nM	50 to 500 nM	< 100 nM	CC(=O)N1c2ccc(-c3cnn(C4CC4)c3)cc2N(C(=O)Oc2cccc3ccc(C)nc23)C[C@@H]1C [Example I-515]
100 to 1000 nM	50 to 500 nM	< 100 nM	CC(=O)N1c2ccc(-c3cnn(C4CC4)c3)cc2N(C(=O)Oc2cccc(C)c2)C[C@@H]1C [Example I-517]
100 to 1000 nM	50 to 500 nM	100 to 500 nM	CC(=O)N1c2ccc(-c3cnn(C4CC4)c3)cc2N(C(=O)Oc2cccc(Cl)c2)C[C@@H]1C [Example I-518]
100 to 1000 nM	50 to 500 nM	< 100 nM	CC(=O)N1c2ccc(-c3cnn(C4CC4)c3)cc2N(C(=O)Oc2ccccc2F)C[C@@H]1C [Example I-519]
< 100 nM	< 50 nM	< 100 nM	COc1ncccc1OC(=O)N1C[C@H](C)N(C(C)=O)c2ccc(-c3cnn(C4CC4)c3)cc21 [Example I-521]
100 to 1000 nM	50 to 500 nM	< 100 nM	COc1c(OC(=O)N2C[C@H](C)N(C(C)=O)c3ccc(-c4cnn(C5CC5)c4)cc32)ccnc1C [Example I-522]
100 to 1000 nM	50 to 500 nM	< 100 nM	COc1ccc(OC(=O)N2C[C@H](C)N(C(C)=O)c3ccc(-c4cnn(C5CC5)c4)cc32)c(F)c1 [Example I-523]
100 to 1000 nM	50 to 500 nM	< 100 nM	COc1ccc(F)c(OC(=O)N2C[C@H](C)N(C(C)=O)c3ccc(-c4cnn(C5CC5)c4)cc32)c1 [Example I-524]
100 to 1000 nM	50 to 500 nM	100 to 500 nM	COc1ccc(C#N)cc1OC(=O)N1C[C@H](C)N(C(C)=O)c2ccc(-c3cnn(C4CC4)c3)cc21 [Example I-526]
100 to 1000 nM	50 to 500 nM	< 100 nM	CC(=O)N1c2ccc(-c3cnn(C4CC4)c3)cc2N(C(=O)Oc2ccc3ncsc3c2)C[C@@H]1C [Example I-527]
100 to 1000 nM	< 50 nM	< 100 nM	COc1cc(Cl)ccc1OC(=O)N1C[C@H](C)N(C(C)=O)c2ccc(-c3cnn(C4CC4)c3)cc21 [Example I-529]
100 to 1000 nM	50 to 500 nM	< 100 nM	COc1ccc(Cl)cc1OC(=O)N1C[C@H](C)N(C(C)=O)c2ccc(-c3cnn(C4CC4)c3)cc21 [Example I-530]
100 to 1000 nM	50 to 500 nM	100 to 500 nM	CC(=O)N1c2ccc(-c3ccc(C(=O)N4CC[C@@H](N)C4)cc3)cc2N(C(=O)OC(C)C)C[C@@H]1C [Example I-532]

IC50 (BRD4 BD1)	IC50 (BRD4 BD2)	IC50 (MV4-11 cells)	Structure (SMILES)
100 to 1000 nM	50 to 500 nM	< 100 nM	CC(=O)N1c2ccc(-c3ccc(C(=O)NCCN(C)C)cc3)cc2N(C(=O)OC(C)C)C[C@@H]1C [Example I-533]
100 to 1000 nM	50 to 500 nM	100 to 500 nM	CC(=O)N1c2ccc(-c3ccc(C(=O)NCC(N)=O)cc3)cc2N(C(=O)OC(C)C)C[C@@H]1C [Example I-534]
100 to 1000 nM	< 50 nM	100 to 500 nM	CCN(CC)C(=O)c1ccc(-c2ccc3c(c2)N(C(=O)OC(C)C)C[C@H](C)N3C(C)=O)cc1 [Example I-536]
100 to 1000 nM	50 to 500 nM	100 to 500 nM	CC(=O)N1c2ccc(-c3ccc(C(=O)N4CCCCC4)cc3)cc2N(C(=O)OC(C)C)C[C@@H]1C [Example I-537]
100 to 1000 nM	50 to 500 nM	100 to 500 nM	CC(=O)N1c2ccc(-c3ccc(C(=O)N4CCSCC4)cc3)cc2N(C(=O)OC(C)C)C[C@@H]1C [Example I-538]
100 to 1000 nM	50 to 500 nM	100 to 500 nM	CC(=O)N1c2ccc(-c3ccc(C(=O)N(C)CCN(C)C)cc3)cc2N(C(=O)OC(C)C)C[C@@H]1C [Example I-539]
< 100 nM	< 50 nM	< 100 nM	CC(=O)N[C@@H]1CCN(C(=O)c2ccc(-c3ccc4c(c3)N(C(=O)OC(C)C)C[C@H](C)N4C(C)=O)cc2)C1 [Example I-540]
100 to 1000 nM	50 to 500 nM	100 to 500 nM	CC(=O)N[C@H]1CCN(C(=O)c2ccc(-c3ccc4c(c3)N(C(=O)OC(C)C)C[C@H](C)N4C(C)=O)cc2)C1 [Example I-541]
< 100 nM	< 50 nM	< 100 nM	CC(=O)N1c2ccc(-c3ccc(C(=O)N4CC[C@@H](N(C)C)C4)cc3)cc2N(C(=O)OC(C)C)C[C@@H]1C [Example I-542]
< 100 nM	< 50 nM	< 100 nM	CC(=O)N1c2ccc(-c3ccc(C(=O)N4CC[C@H](N(C)C)C4)cc3)cc2N(C(=O)OC(C)C)C[C@@H]1C [Example I-543]
100 to 1000 nM	50 to 500 nM	100 to 500 nM	CC(=O)N1c2ccc(-c3ccc(C(=O)N4CCN(C)CC4)cc3)cc2N(C(=O)OC(C)C)C[C@@H]1C [Example I-544]
100 to 1000 nM	50 to 500 nM	100 to 500 nM	CC(=O)N1c2ccc(-c3ccc(C(=O)N4CCN(C=O)CC4)cc3)cc2N(C(=O)OC(C)C)C[C@@H]1C [Example I-545]
100 to 1000 nM	50 to 500 nM	100 to 500 nM	COC(=O)N1CCN(C(=O)c2ccc(-c3ccc4c(c3)N(C(=O)OC(C)C)C[C@H](C)N4C(C)=O)cc2)CC1 [Example I-546]
100 to 1000 nM	50 to 500 nM	100 to 500 nM	CC(=O)N1c2ccc(-c3ccc(C(=O)N4CCNC(=O)C4)cc3)cc2N(C(=O)OC(C)C)C[C@@H]1C [Example I-547]
100 to 1000 nM	50 to 500 nM	< 100 nM	CC(=O)N1CCN(C(=O)c2ccc(-c3ccc4c(c3)N(C(=O)OC(C)C)C[C@H](C)N4C(C)=O)cc2)CC1 [Example I-548]
100 to 1000 nM	50 to 500 nM	100 to 500 nM	CC(=O)N1c2ccc(-c3ccc(C(=O)N4CCN(S(C)(=O)=O)CC4)cc3)cc2N(C(=O)OC(C)C)C[C@@H]1C [Example I-549]
< 100 nM	50 to 500 nM	100 to 500 nM	CC(=O)N1c2ccc(-c3ccc(C(=O)N(C)CC(=O)N(C)C)cc3)cc2N(C(=O)OC(C)C)C[C@@H]1C [Example I-550]
100 to 1000 nM	50 to 500 nM	100 to 500 nM	CC(=O)N1c2ccc(-c3ccc(C(=O)N(C)CCN4CCCC4)cc3)cc2N(C(=O)OC(C)C)C[C@@H]1C [Example I-551]
100 to 1000 nM	50 to 500 nM	100 to 500 nM	CC(=O)N1c2ccc(-c3ccc(C(=O)N(C)c4ccccn4)cc3)cc2N(C(=O)OC(C)C)C[C@@H]1C [Example I-552]
100 to 1000 nM	50 to 500 nM	< 100 nM	CC(=O)N1c2ccc(-c3ccc(C(=O)N4CCCN(C)CC4)cc3)cc2N(C(=O)OC(C)C)C[C@@H]1C [Example I-553]
< 100 nM	< 50 nM	100 to 500 nM	CNC(=O)CN(C)C(=O)c1ccc(-c2ccc3c(c2)N(C(=O)OC(C)C)C[C@H](C)N3C(C)=O)cc1 [Example I-554]
100 to 1000 nM	50 to 500 nM	< 100 nM	CC(=O)N1c2ccc(-c3ccc(C(=O)N4C[C@H]5CCN(C)[C@H]5C4)cc3)cc2N(C(=O)OC(C)C)C[C@@H]1C [Example I-555]
100 to 1000 nM	50 to 500 nM	100 to 500 nM	CC(=O)N1c2ccc(-c3ccc(C(=O)N4CCNCC4)cc3)cc2N(C(=O)OC(C)C)C[C@@H]1C [Example I-557]
